Test results from patent US20110207784A1, “OXADIAZOLE-2-OXIDES AS ANTISCHISTOSOMAL AGENTS” (THE UNITED STATES OF AMERICA, AS REPRESENTED BY THE …, priority 2008, published 2011).

Each molecule was assayed on freshly perfused S. mansoni worms (assay: ex vivo parasite killing assay). Conditions: not given.
Format: cell-based
`N#Cc1c(-c2cccc(-c3no[n+]([O-])c3C#N)c2)no[n+]1[O-]` [Compound 43, 4,4′-(1,3-phenylene)bis(3-cyano-1,2,5-oxadiazole-2-oxide)] was tested, and the “worms judged to be dead” value was 100%. With `N#Cc1c(-c2cc(F)cc(-c3no[n+]([O-])c3C#N)c2)no[n+]1[O-]` [Compound 45, 4,4′-(5-fluoro-1,3-phenylene)bis(3-cyano-1,2,5-oxadiazole-2-oxide)] the “worms judged to be dead” value was 100%.

Same assay, conditions: compound at 10 μM, RPMI 1640, 10% FCS, pH 7
`N#Cc1c(-c2ccccc2)no[n+]1[O-]` [Compound 49, reference compound] was tested, and the “Approximate ET100 (time for 100% of the worms to die)” value was 16 to 18 h.

What follows are molecules tested against Recombinant thioredoxin glutathione reductase (TGR) (Schistosoma mansoni, UniProt Q962Y6) (assay: biochemical). Conditions: not given.
Sequence of Recombinant thioredoxin glutathione reductase (TGR) (Q962Y6 1-598): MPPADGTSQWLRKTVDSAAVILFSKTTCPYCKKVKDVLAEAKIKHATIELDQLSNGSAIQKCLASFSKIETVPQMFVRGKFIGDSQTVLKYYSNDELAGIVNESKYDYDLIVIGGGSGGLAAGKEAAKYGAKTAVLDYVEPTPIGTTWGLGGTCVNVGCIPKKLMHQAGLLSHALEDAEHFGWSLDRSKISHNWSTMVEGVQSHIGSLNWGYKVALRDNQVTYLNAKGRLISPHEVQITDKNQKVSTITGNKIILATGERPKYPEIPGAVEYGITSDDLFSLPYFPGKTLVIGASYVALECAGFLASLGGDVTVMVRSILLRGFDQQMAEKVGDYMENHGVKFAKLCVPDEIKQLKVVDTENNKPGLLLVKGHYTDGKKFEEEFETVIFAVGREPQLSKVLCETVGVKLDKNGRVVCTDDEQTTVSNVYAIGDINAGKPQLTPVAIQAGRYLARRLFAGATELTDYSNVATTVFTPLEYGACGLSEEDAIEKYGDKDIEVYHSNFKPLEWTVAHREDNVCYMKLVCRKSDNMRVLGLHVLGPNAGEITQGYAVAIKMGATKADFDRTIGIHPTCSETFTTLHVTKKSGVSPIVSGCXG
Format: biochemical, S. mansoni
With `N#Cc1c(-c2ccc([N+](=O)[O-])cc2)no[n+]1[O-]` [Compound 25, 3-cyano-4-(4-nitrophenyl)-1,2,5-oxadiazole-2-oxide] the IC50 was 2.2 µM. For `Cc1c(-c2ccccc2)no[n+]1[O-]` [Compound 50], the “TGR inhibition, potency in words” value was “less potent than compounds 52, 51, and 56”.

Same assay, conditions: read-out: TGR IC50
In the case of `N#Cc1c(-c2ccc(F)cc2)no[n+]1[O-]` [Compound 21, 3-cyano-4-(4-fluorophenyl)-1,2,5-oxadiazole-2-oxide], the IC50 is reported as 7.9 µM. `N#Cc1c(-c2ccc(Cl)cc2)no[n+]1[O-]` [Compound 22, 4-(4-chlorophenyl)-3-cyano-1,2,5-oxadiazole-2-oxide] showed an IC50 of 4 µM. With `N#Cc1c(-c2ccc(Br)cc2)no[n+]1[O-]` [Compound 23, 4-(4-bromophenyl)-3-cyano-1,2,5-oxadiazole-2-oxide] the IC50 was 3.5 µM. In the case of `N#Cc1c(-c2ccc(C(F)(F)F)cc2)no[n+]1[O-]` [Compound 24, 3-cyano-4-(4-(trifluoromethyl)phenyl)-1,2,5-oxadiazole-2-oxide], the IC50 is reported as 7.1 µM. `COc1ccc(-c2no[n+]([O-])c2C#N)cc1` [Compound 26, 3-cyano-4-(4-methoxyphenyl)-1,2,5-oxadiazole-2-oxide] showed an IC50 of 10 µM. Molecule `Cc1ccc(-c2no[n+]([O-])c2C#N)cc1` [Compound 27, 3-cyano-4-p-tolyl-1,2,5-oxadiazole-2-oxide] has an IC50 of 11.2 µM. In the case of `N#Cc1c(-c2ccc(-c3ccccc3)cc2)no[n+]1[O-]` [Compound 28, 4-(biphenyl-4-yl)-3-cyano-1,2,5-oxadiazole-2-oxide], the IC50 is reported as 15.8 µM. For `N#Cc1c(-c2cccc(Cl)c2)no[n+]1[O-]` [Compound 30, 4-(3-chlorophenyl)-3-cyano-1,2,5-oxadiazole-2-oxide], the IC50 was 3.5 µM. `N#Cc1c(-c2cccc(Br)c2)no[n+]1[O-]` [Compound 31, 4-(3-bromophenyl)-3-cyano-1,2,5-oxadiazole-2-oxide] was tested, and the IC50 was 2.8 µM. `N#Cc1c(-c2cccc(C(F)(F)F)c2)no[n+]1[O-]` [Compound 32, 3-cyano-4-(3-(trifluoromethyl)phenyl)-1,2,5-oxadiazole-2-oxide] gave an IC50 of 2.5 µM. `COc1cccc(-c2no[n+]([O-])c2C#N)c1` [Compound 33, 3-cyano-4-(3-methoxyphenyl)-1,2,5-oxadiazole-2-oxide] gave an IC50 of 8.9 µM. `COc1ccccc1-c1no[n+]([O-])c1C#N` [Compound 34, 3-cyano-4-(2-methoxyphenyl)-1,2,5-oxadiazole-2-oxide] gave an IC50 of 7.9 µM. `N#Cc1c(-c2ccc(F)c(Br)c2)no[n+]1[O-]` [Compound 35, 4-(3-bromo-4-fluorophenyl)-3-cyano-1,2,5-oxadiazole-2-oxide] gave an IC50 of 2.8 µM. `COc1cc(-c2no[n+]([O-])c2C#N)cc(OC)c1OC` [Compound 38, 3-cyano-4-(3,4,5-trimethoxyphenyl)-1,2,5-oxadiazole-2-oxide] was tested, and the IC50 was 8.9 µM. With `N#Cc1c(-c2cccc(-c3no[n+]([O-])c3C#N)c2)no[n+]1[O-]` [Compound 43, 4,4′-(1,3-phenylene)bis(3-cyano-1,2,5-oxadiazole-2-oxide)] the IC50 was 3.5 µM. For `N#Cc1c(-c2cc(F)cc(-c3no[n+]([O-])c3C#N)c2)no[n+]1[O-]` [Compound 45, 4,4′-(5-fluoro-1,3-phenylene)bis(3-cyano-1,2,5-oxadiazole-2-oxide)], the IC50 was 0.48 µM. Work on `N#Cc1c(-c2cccc(O)c2)no[n+]1[O-]` [Compound 46, 3-cyano-4-(3-hydroxyphenyl)-1,2,5-oxadiazole-2-oxide] yielded an IC50 of 7.1 µM. `N#Cc1c(-c2ccc(O)cc2)no[n+]1[O-]` [Compound 48, 3-cyano-4-(4-hydroxyphenyl)-1,2,5-oxadiazole-2-oxide] showed an IC50 of 17.9 µM. For `N#Cc1c(-c2ccccc2)no[n+]1[O-]` [Compound 49, reference compound], the IC50 was 6.3 µM. `[O-][n+]1onc(-c2ccccc2)c1CO` [Compound 51] was tested, and the IC50 was 11.2 µM. For `O=Cc1c(-c2ccccc2)no[n+]1[O-]` [Compound 52], the IC50 was 0.11 µM. Work on `N#Cc1c(-c2cccc([N+](=O)[O-])c2)no[n+]1[O-]` [Compound 55, 3-cyano-4-(3-nitrophenyl)-1,2,5-oxadiazole-2-oxide] yielded an IC50 of 2.2 µM.
